Experimental findings from ChEMBL document CHEMBL4507265 (2021) are described below.

Data set [1] has as its target Alpha-2B adrenergic receptor (Homo sapiens, UniProt P18089). The data set is described as follows: GPCRScan assay: inhibition of Alpha2B. Also on record: radioligand conc. used [nm] 1.5 – 2.0, parental cells HEKT.
For data set [2], the target named is Voltage-dependent N-type calcium channel subunit alpha-1B (Homo sapiens) (UniProt Q00975). Nature of the data set: Inhibition of Calcium Channel N-Type at 10 µM in the Eurofins-Panlabs radioligand binding assay (Eurofins_assay_216000). To be noted: Rattus norvegicus; Compound concentration 10.0 uM.
In data set [3] the target is T1, D(4) dopamine receptor (Homo sapiens) (UniProt P21917).
T1 sequence (whole entry): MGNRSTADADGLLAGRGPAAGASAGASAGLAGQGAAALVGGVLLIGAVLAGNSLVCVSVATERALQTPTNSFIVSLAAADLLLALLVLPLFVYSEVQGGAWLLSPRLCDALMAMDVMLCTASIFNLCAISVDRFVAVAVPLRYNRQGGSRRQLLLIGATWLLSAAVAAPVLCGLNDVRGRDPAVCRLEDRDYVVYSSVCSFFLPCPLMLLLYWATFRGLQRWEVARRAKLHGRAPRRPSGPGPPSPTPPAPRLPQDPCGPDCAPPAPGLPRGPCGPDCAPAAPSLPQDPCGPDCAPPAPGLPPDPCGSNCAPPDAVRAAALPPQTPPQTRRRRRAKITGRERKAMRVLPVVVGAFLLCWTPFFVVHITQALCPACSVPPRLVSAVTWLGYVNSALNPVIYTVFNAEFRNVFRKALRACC
The data set is described as follows: Inhibition of Dopamine D4.2 at 10 µM in the Eurofins-Panlabs radioligand binding assay (Eurofins_assay_219900). Also on record: ligand concentration 0.5 nM. To be noted: Compound concentration 10.0 uM.

Data set [4] concerns the target Cysteinyl leukotriene receptor 1 (Homo sapiens) (UniProt Q9Y271). The data set is described as follows: Inhibition of Leukotriene, Cysteinyl CysLT1 at 10 µM in the Eurofins-Panlabs radioligand binding assay (Eurofins_assay_250460). Also on record: ligand concentration 0.3 nM, non-specific ligand with concentration 0.3 µM Leukotriene D4, incubation time 30 min, incubation temperature 25 °C. To be noted: Compound concentration 10.0 uM.

The target of data set [5] is Melatonin receptor type 1A (Homo sapiens) (UniProt P48039). Nature of the data set: Inhibition of Melatonin MT1 at 10 µM in the Eurofins-Panlabs radioligand binding assay (Eurofins_assay_251600). Details: ligand concentration 0.05 nM. As to conditions: Compound concentration 10.0 uM.
For data set [6], the target named is Neuropeptide Y receptor type 2 (Homo sapiens) (UniProt P49146). Nature of the data set: Inhibition of Neuropeptide Y Y2 at 10 µM in the Eurofins-Panlabs radioligand binding assay (Eurofins_assay_257110). To be noted: Compound concentration 10.0 uM.
The target in data set [7] is Prostaglandin E2 receptor EP4 subtype (Homo sapiens) (UniProt P35408). Nature of the data set: Inhibition of Prostanoid EP4 at 10 µM in the Eurofins-Panlabs radioligand binding assay (Eurofins_assay_268420). As to conditions: Compound concentration 10.0 uM. Details: ligand concentration 1 nM.
The species entered for data set [8] is Rattus norvegicus. Nature of the data set: Inhibition of Rolipram at 10 µM in the Eurofins-Panlabs radioligand binding assay (Eurofins_assay_268811). In kind it is protein assay. Details: ligand concentration 1.8 nM. To be noted: Compound concentration 10.0 uM.
Data set [9] has as its target Sigma non-opioid intracellular receptor 1 (Homo sapiens) (UniProt Q99720). Nature of the data set: Sigma 1 Eurofins-Panlabs radioligand binding assay. Details: ligand concentration 8 nM. To be noted: Compound concentration 10.0 uM.
Data set [10] deals with voltage-gated sodium channel, site 2 (Rattus norvegicus, UniProt F1LQQ7+O08562+O88420+O88457+P04774+P04775+P08104+P15389+P15390+Q62968). The data set is described as follows: Inhibition of Sodium Channel, Site 2 at 10 µM in the Eurofins-Panlabs radioligand binding assay (Eurofins_assay_279510). The data set is classed as protein assay. Also on record: ligand concentration 5 nM, non-specific ligand with concentration 100 µM Veratridine, incubation time 60 min, incubation temperature 37 °C. To be noted: male, Wistar, rat whole brain (except cerebellum) membranes, probe [3H] Batrachotoxinin, 5 nM, compound concentration 10 uM.

For data set [11], the species on record is Rattus norvegicus. Nature of the data set: Inhibition of Thyroid Hormone at 10 µM in the Eurofins-Panlabs radioligand binding assay (Eurofins_assay_285900). In kind it is protein assay. To be noted: Compound concentration 10.0 uM.
For data set [12], the target named is Beta-2 adrenergic receptor (Homo sapiens) (UniProt P07550). To be noted: Compound concentration 10.0 uM.
For data set [13], the target named is T2, Alpha-2A adrenergic receptor (Homo sapiens) (UniProt P08913).
T2 sequence (whole entry): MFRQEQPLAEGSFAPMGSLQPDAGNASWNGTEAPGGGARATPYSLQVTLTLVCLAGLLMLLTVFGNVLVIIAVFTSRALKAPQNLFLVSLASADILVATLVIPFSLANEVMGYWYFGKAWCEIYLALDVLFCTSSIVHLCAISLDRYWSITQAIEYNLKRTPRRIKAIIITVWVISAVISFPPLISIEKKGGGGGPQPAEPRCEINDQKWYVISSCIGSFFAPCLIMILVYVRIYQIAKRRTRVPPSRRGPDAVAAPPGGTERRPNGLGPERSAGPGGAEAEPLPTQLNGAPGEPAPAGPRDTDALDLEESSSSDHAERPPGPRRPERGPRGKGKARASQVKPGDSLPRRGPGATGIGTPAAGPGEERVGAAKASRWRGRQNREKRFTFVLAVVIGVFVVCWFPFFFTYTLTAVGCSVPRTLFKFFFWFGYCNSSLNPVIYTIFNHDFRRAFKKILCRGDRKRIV
To be noted: Compound concentration 10.0 uM.

For data set [14], the target named is Beta-2 adrenergic receptor (Homo sapiens) (UniProt P07550). To be noted: Compound concentration 10.0 uM. This is another data set of the same source.
For data set [15], the target named is Endothelin receptor type B (Homo sapiens) (UniProt P24530). To be noted: Compound concentration 10.0 uM.
Data set [16] addresses T3, Muscarinic acetylcholine receptor M2 (Homo sapiens) (UniProt P08172).
T3 sequence (whole entry): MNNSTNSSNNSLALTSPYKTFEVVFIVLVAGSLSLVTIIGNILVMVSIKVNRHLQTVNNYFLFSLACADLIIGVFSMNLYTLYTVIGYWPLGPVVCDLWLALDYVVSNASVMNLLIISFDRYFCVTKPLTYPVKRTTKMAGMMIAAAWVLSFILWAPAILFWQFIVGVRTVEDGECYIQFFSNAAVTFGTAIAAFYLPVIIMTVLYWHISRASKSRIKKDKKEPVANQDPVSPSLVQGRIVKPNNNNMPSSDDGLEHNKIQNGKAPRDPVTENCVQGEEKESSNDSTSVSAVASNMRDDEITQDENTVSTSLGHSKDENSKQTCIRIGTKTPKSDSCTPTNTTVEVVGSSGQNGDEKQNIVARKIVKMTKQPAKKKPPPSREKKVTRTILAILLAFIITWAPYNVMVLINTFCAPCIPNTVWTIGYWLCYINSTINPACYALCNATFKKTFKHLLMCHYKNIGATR
As to conditions: Compound concentration 10.0 uM.

Data set [17] deals with Mu-type opioid receptor (Homo sapiens) (UniProt P35372). As to conditions: Compound concentration 10.0 uM.
Data set [18] concerns the target Sodium-dependent noradrenaline transporter (Homo sapiens) (UniProt P23975). To be noted: Compound concentration 10.0 uM.

Beta-2 adrenergic receptor (Homo sapiens), sequence (P07550 whole entry, looked up): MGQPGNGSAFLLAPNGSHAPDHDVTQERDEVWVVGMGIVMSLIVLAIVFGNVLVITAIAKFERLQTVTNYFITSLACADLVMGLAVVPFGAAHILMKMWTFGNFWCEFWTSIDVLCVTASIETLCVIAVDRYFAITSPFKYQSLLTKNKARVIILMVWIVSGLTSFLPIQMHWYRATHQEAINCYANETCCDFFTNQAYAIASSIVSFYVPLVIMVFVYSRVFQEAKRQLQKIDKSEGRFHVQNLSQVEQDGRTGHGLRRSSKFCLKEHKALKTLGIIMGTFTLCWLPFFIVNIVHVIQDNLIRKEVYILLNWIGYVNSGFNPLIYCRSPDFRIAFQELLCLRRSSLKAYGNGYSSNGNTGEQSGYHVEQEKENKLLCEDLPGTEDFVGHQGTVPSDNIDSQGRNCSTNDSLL
Alpha-2B adrenergic receptor, sequence (P18089 whole entry): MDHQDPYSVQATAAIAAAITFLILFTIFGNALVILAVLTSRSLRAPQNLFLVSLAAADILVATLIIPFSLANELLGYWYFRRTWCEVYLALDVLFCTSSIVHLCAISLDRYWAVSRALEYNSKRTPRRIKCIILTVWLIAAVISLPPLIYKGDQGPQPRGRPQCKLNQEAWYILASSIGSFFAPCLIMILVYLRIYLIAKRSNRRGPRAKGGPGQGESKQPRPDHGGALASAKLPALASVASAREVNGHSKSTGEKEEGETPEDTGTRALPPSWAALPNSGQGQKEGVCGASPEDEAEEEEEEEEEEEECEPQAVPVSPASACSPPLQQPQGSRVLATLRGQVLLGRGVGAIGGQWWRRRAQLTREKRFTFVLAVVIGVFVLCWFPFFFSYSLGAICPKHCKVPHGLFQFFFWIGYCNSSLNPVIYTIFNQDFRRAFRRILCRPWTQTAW
Melatonin receptor type 1A (Homo sapiens), sequence (P48039 whole entry): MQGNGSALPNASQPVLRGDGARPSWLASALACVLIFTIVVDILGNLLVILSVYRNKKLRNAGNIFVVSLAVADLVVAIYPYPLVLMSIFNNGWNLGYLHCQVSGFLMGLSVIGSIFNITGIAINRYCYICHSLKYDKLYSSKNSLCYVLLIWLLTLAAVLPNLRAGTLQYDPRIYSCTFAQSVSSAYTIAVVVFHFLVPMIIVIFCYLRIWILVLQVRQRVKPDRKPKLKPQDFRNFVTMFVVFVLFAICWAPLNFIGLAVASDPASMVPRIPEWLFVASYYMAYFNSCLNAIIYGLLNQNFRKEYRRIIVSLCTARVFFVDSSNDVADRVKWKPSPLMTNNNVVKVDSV
Neuropeptide Y receptor type 2 (Homo sapiens), sequence (P49146 whole entry): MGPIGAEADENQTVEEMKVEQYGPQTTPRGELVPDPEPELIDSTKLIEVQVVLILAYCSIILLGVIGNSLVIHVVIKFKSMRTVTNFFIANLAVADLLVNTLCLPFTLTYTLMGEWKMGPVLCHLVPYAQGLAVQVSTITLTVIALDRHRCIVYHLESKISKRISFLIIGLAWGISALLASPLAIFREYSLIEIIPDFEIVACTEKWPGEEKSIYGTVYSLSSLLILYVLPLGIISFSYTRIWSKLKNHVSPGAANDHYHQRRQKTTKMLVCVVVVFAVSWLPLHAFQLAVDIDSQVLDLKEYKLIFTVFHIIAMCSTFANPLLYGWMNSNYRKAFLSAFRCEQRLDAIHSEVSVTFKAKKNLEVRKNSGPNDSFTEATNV
Voltage-dependent N-type calcium channel subunit alpha-1B (Homo sapiens), sequence (Q00975 whole entry, looked up): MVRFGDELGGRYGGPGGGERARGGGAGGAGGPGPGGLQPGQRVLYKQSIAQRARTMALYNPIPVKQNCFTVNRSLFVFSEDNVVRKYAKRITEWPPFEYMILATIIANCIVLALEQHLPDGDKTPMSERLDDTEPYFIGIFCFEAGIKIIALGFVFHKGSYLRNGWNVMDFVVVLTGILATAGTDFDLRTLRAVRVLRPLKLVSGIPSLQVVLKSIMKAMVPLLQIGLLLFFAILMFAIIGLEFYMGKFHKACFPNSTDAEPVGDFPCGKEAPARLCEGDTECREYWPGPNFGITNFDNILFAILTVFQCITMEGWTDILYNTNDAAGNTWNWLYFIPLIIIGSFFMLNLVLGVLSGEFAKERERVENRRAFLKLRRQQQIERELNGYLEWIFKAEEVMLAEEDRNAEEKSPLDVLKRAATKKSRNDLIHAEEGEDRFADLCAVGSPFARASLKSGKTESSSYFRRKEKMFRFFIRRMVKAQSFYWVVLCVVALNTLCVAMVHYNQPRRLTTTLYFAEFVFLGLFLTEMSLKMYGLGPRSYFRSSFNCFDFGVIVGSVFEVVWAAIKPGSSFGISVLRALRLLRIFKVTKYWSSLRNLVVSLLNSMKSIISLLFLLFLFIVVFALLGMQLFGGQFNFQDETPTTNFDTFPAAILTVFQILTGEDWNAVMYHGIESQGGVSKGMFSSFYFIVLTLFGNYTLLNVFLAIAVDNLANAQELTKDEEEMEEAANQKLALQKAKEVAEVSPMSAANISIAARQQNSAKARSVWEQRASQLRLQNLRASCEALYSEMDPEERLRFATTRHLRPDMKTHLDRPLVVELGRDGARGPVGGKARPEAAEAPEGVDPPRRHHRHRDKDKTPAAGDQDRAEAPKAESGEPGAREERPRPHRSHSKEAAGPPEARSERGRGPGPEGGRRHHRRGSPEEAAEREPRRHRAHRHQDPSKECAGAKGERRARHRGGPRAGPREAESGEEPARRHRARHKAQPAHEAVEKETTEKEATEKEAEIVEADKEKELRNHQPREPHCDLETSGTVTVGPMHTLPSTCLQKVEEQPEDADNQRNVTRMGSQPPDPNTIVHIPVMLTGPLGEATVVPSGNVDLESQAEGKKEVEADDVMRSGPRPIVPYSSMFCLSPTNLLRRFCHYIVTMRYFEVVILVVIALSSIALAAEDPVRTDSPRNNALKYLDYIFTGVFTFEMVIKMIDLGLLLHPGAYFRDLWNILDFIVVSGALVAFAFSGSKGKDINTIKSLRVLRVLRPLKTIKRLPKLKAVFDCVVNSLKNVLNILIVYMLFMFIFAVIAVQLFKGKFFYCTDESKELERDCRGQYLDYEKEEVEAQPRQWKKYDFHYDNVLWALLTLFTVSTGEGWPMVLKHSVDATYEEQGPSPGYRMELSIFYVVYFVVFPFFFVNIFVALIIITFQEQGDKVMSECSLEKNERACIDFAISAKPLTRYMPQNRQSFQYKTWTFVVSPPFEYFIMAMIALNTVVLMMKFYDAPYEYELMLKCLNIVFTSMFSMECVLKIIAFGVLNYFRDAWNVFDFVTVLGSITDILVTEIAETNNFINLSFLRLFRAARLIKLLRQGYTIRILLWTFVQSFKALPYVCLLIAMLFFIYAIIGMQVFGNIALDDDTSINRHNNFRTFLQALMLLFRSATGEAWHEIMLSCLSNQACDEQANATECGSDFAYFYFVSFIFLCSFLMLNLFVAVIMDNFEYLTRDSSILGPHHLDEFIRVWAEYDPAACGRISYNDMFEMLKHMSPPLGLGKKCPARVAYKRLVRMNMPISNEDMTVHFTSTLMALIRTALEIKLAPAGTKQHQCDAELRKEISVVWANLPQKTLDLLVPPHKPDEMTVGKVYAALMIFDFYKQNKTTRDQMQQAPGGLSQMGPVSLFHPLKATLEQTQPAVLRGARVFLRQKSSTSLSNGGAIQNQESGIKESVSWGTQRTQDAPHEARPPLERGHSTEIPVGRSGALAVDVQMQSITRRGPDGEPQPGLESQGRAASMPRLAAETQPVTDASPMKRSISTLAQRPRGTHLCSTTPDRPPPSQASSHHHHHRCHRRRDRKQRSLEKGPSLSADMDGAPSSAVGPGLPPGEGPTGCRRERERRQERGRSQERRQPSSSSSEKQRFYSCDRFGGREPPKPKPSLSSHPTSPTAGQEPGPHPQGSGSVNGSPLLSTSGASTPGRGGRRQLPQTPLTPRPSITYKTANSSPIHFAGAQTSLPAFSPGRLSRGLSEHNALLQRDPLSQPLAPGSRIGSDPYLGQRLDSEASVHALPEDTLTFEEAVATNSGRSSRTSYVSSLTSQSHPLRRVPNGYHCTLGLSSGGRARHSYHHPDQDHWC
Prostaglandin E2 receptor EP4 subtype (Homo sapiens), sequence (P35408 whole entry): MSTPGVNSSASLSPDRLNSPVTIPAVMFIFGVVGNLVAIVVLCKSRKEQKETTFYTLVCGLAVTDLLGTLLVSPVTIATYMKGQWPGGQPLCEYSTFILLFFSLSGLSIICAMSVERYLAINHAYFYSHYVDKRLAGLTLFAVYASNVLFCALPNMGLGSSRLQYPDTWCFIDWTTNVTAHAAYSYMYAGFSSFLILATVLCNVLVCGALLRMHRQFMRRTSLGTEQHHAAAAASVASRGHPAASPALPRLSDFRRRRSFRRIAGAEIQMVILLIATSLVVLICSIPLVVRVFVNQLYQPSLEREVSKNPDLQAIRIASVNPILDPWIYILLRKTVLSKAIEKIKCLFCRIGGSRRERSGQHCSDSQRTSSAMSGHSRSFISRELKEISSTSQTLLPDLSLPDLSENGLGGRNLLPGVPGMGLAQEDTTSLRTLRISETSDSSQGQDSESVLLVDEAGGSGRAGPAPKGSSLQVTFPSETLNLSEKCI
Sigma non-opioid intracellular receptor 1 (Homo sapiens), sequence (Q99720 whole entry): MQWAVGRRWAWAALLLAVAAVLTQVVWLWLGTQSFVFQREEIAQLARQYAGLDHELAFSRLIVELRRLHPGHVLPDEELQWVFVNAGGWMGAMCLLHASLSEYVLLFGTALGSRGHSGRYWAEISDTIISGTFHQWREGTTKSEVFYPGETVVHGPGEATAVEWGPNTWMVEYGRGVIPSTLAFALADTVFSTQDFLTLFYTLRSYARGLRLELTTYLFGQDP
Cysteinyl leukotriene receptor 1 (Homo sapiens), sequence (Q9Y271 whole entry): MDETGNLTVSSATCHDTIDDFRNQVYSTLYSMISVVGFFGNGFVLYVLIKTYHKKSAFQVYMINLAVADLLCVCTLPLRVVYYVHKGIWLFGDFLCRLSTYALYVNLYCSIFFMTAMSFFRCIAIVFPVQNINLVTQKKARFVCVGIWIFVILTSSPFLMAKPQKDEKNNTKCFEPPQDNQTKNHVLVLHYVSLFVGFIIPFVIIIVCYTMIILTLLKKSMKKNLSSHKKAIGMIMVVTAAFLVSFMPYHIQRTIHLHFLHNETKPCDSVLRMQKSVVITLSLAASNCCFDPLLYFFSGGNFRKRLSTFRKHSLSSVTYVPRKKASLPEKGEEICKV

As to `NS(=O)(=O)c1cc(NC(=O)Cc2ccccc2)ccc1Oc1cccc(Cl)c1` [BAY-1797], the Ki in data set [1] (read-out: Ki) is 4.29 µM; in data set [1] (read-out: pKi (converted)), 4.32 µM. Also, the inhibition – broadly, the drop in the measured response relative to a control, in per cent – was 6% in data set [2]; 4% in [3]; 8% in data set [4]; 13% in [5]; 8% in data set [6]; 21% in [7]. For the same molecule, the inhibition was 8% in data set [8]; 19% in data set [9]; 2% in data set [11]; 18.9% in data set [12]; 26% in [13]; 2% in data set [14]. Moreover, the inhibition in data set [15] is -1%; in data set [16], 4%; in data set [17] it was 9%; in data set [18], 47%. Further, the inhibition at 60 min, 10 µM in [10] is 57%.
